One compound from patent publication US20240156800A1, “EP300 DEGRADER AND USES THEREOF IN NEUROBLASTOMA” (DANA-FARBER CANCER INSTITUTE, INC., priority 2021, published 2024) can be followed below.

The test system of assay [1] is Kelly, NGP and SIMA NB cells. In words: Cell Titer-Glo cell viability / growth assay. The assay is classed as cell-based, human. The settings on record: 6 days, compared with (S,S) stereoisomer and A485. As to the method:
Cells were infected with lentiviruses encoding sgRNAs or treated with compounds as described. Colony assays were performed by replating cells at 500 cells per well in 6-well dishes and grown in regular growth media for 10 d before 100% methanol fixation, 0.05% crystal violet staining, and quantitation. Experiments were completed in triplicate; data shown are the average of three independent experiments. Cell Titer-Glo® assay was performed as per the manufacturer's instructions (Promega®). Briefly, 1000 cells/well were plated into 96-well plates and treated with a range of compound dosing. Cell viability was measured at the noted time points based on luminescence by the Cell Titer-Glo® assay (Promega®) and read on an Envision 2104 (PerkinElmer®, USA) according to the manufacturer's protocol.
Background: Cellular ATP, detected with luciferase, serves as a proxy for viable cell number.

For another assay, the system named is MYCN. In words: Western blotting of MYCN (whole lysates and chromatin extracts). The settings on record: Kelly cells, 0.5 and 1 μM, 24 h, chromatin extracts. In kind it is cell-based, human. As to the method:
Cells growing in culture were lysed for whole cell lysates as described in Durbin et al. Nat. Genet. 50:1240-1246 (2018) and Wang et al. Nat. Commun. 10:5622 (2019). Nuclear lysates were prepared using the NE-PER® nuclear lysate kit (Thermo Scientific™) according to the manufacturer's protocol. Chromatin lysates were prepared with the total histone extraction kit (Epigentek). Briefly, equivalent amounts of protein were resolved by western blotting using 4-12% Bis-Tris NuPAGE™ gels (Thermo-Fisher Scientific) prior to transfer, and immunoblotting using primary antibodies to: MYCN (1:1000, Cell Signaling Technology®), H3K27ac (1:1000, Abcam), total H3 (1:1000, Cell Signaling Technology®), EP300 (1:1000, Abcam), CBP (1:500, Cell Signaling Technology®), Cas9 (1:1000, Cell Signaling Technology®), cleaved-PARP1 (1:1000, Cell Signaling Technology), cleaved Caspase-3 (1:1000, Cell Signaling Technology®), β-actin (1:1000, Cell Signaling Technology®), GATA3 (1:1000, EMD Millipore™), TFAP2β (1:1000, Cell Signaling Technology®), Vinculin (1:1000, EMD Millipore™), CRBN (1:1000, Cell Signaling Technology®), HAND2 (1:1000, Santa Cruz Biotechnology). Secondary antibodies were horseradish peroxidase (HRP)-conjugated anti-rabbit or anti-mouse (1:5000, Santa Cruz Biotechnology), incubated prior to exposure to enhanced chemiluminescence reagents (GE, Amersham). For immunoprecipitation, equal amounts of protein were diluted in buffer C as described in Mansour et al. Science 346:1373-1377 (2014) and incubated with antibodies covalently conjugated to Dynabeads™ M-270 beads (Thermo-Fisher Scientific) overnight according to the manufacturer's directions. Antibodies used included: H3K27ac, EP300 (Abcam), CBP, TFAP2β (Cell Signaling Technology®), rabbit immunoglobulin G (IgG) (Santa Cruz Biotechnology®). Immunoprecipitated protein was isolated as per the manufacturer's directions and subjected to western blotting, as described above, or mass spectrometry.
In general terms: Immunoblotting shows a protein as a band on a membrane.

Assay [2] relates to super-enhancer regulated and CRC genes. Briefly: ERCC spike-in RNA-seq of xenograft tumor cells. In kind it is in vivo, human. The source says: For in vivo analyses, tumors were removed from animals treated with either vehicle […] to filtering for single cells through a […] filter. Single cell suspensions were then solubilized in TRIzol™ (Ambion) as described above, with processing, including ERCC RNA spike in controls, treatment with RNAse-free DNAse I, and spin purification. Following preparation, there was sufficient material to proceed with RNAseq analysis for four vehicle control and three JQAD1 treated tumor specimen. Purified RNA samples were subjected to library construction with a low input RNA protocol followed by poly-adenylation preparation and sequencing using the Illumina NextSeq® 500 (paired end, 75 bp reads). Raw reads for RNA-seq of in vivo models were aligned first using hisat2 v2.1 in paired-end mode against the mm9 revision of the mouse genome to filter out contaminating mouse reads. Remaining reads were aligned to a reference genome containing the hg19 revision of the human reference and the sequences of ERCC spike-in probes. Expression was quantified using sorted BAMs, a gene reference built using ERCC sizes and RefSeq genes downloaded Jul. 15, 2017, and htseq-count with parameters -I gene_id -stranded=reverse -f bam -m intersection-strict. Read counts were converted to transcripts per million (TPM) and used for cell number-normalization. […]
A general note: Xenograft models place foreign cells or tissue in a host animal.

Take `C[C@H](N(Cc1ccc(F)cc1)C(=O)CN1C(=O)O[C@@]2(CCc3cc(NC(=O)CCCCCCCCCCCNc4ccc5c(c4)C(=O)N(C4CCC(=O)NC4=O)C5=O)ccc32)C1=O)C(F)(F)F` (stereo partly drawn) [JQAD1, 12-((2-(2,6-dioxopiperidin-3-yl)-1,3-dioxoisoindolin-5-yl)amino)-N-((R)-3′-(2-((4-fluorobenzyl)((S)-1,1,1-trifluoropropan-2-yl)amino)-2-oxoethyl)-2′,4′-dioxo-2,3-dihydrospiro[indene-1,5′-oxazolidin]-5-yl)dodecanamide]: in assay [1], the “IC50 in intact NB cells (comparison)” value is “lowest IC50 concentration”. Also, in the assay on MYCN, the “chromatin-bound MYCN” value was “loss of both EP300 and chromatin-bound MYCN proteins”. The “expression of CRC genes and MYCN in tumors” value in assay [2] (40 mg/Kg daily for 14 days) was “among the most downregulated genes”. Further, the “RNA expression of super-enhancer versus typical-enhancer regulated genes in tumor cells” value in assay [2] (40 mg/Kg once daily, p<0.0001) is on record as “preferential downregulation of genes regulated by super-enhancers compared with those regulated by typical enhancers”.
